Broadly, the IC50 is the midpoint of a concentration-inhibition curve.

The values below come from ChEMBL document CHEMBL5316352, “Puromycin Prodrug Activation by Thioredoxin Reductase Overcomes Its Promiscuous Cytotoxicity” (J Med Chem, 2023).

The source made the active and inactive calls. No cut-off for these calls is given here. A value given as a limit tells only on which side of the number the result lay.

Series [1] can be described thus: Prodrug conversion in human HepG2 cells assessed as inhibition of proteome incorporation at 1 uM pretreated with AF for 30 mins followed by compound addition. In kind it is cell-based. Conditions: hepg2, 1 µM.
Series [2] in a line: Prodrug activation in human HepG2 cells assessed as increase in biotin labelling at 10 uM incubated for 12 hrs by Western blotting analysis. In kind it is cell-based. Conditions: hepg2, 12 h. On the technique in general: In western blotting, separated proteins are transferred to a membrane and probed.
Series [3] can be described thus: Prodrug activation in human HepG2 cells assessed as increase in rhodamine labelling at 10 uM incubated for 12 hrs by in-gel fluorescence imaging analysis. Conditions: hepg2, 12 h. The class given is cell-based.
Series [4] can be described thus: Prodrug activation in human HepG2 cells assessed as increase in rhodamine labelling at 1 uM incubated for 12 hrs by in-gel fluorescence imaging analysis. The class given is cell-based. Conditions: hepg2, 12 h.
Series [5] can be described thus: Prodrug activation in human HepG2 cells assessed as increase in biotin labelling at 1 uM incubated for 12 hrs by Western blotting analysis. Conditions: hepg2, 12 h. The class given is cell-based.
A short description of series [6]: Prodrug conversion in human HepG2 cells assessed as proteome incorporation at 1 uM pretreated with AF for 30 mins followed by compound addition. The class given is ADME, cell-based. Conditions: hepg2, 1 µM.
For series [7], the system named is MCF7. In words: Cytotoxicity against human MCF7 cells with low TrxR expression assessed as reduction in cell viability incubated for 48 hrs by MTT assay. Conditions: MCF7, 48 h. The class given is functional, cell-based. In general terms: Formazan colour is commonly taken as a measure of viable cells.
Series [8] concerns HepG2. In words: Cytotoxicity against human HepG2 cells expressing shNT assessed as reduction in cell viability incubated for 48 hrs by MTT assay. In kind it is functional, cell-based. Conditions: HepG2, 48 h.
Series [9] has as its system HepG2. In words: Potency index, ratio of test compound IC50 to puromycin IC50 for cytotoxicity against human HepG2 cells. The class given is functional.
The next series relates to BEAS-2B. In words: Potency index, ratio of test compound IC50 to puromycin IC50 for cytotoxicity against human BEAS-2B cells. The class given is functional.
Another series has as its system HEK-293T. In words: Potency index, ratio of test compound IC50 to puromycin IC50 for cytotoxicity against human HEK293T cells. The class given is functional.
Series [10] relates to HL-60. In words: Cytotoxicity against human HL-60 cells with low TrxR expression assessed as reduction in cell viability incubated for 48 hrs by MTT assay. The class given is functional, cell-based. Conditions: HL-60, 48 h.
The nature of series [11]: Prodrug activation in human HeLa cell lysate expressing shTXNRD1 assessed as reduction in 1,2-dithiolan-4-yl ((S)-1-(((2S,3S,4R,5R)-5-(6-(dimethylamino)-9H-purin-9-yl)-4-hydroxy-2-(hydroxymethyl)tetrahydrofuran-3-yl)amino)-3-(4-methoxyphenyl)-1-oxopropan-2-yl)carbamate level by measuring absorbance at 340 nm at 150 uM pretreated with TrxR inhibitor AF for 30 mins followed by compound addition in presence of NADPH. In kind it is ADME, subcellular.

Series [12] has as its system HeLa. In words: Cytotoxicity against human HeLa cells with high TrxR expression assessed as reduction in cell viability incubated for 48 hrs by MTT assay. The class given is functional, cell-based.
Series [13] relates to HepG2. In words: Cytotoxicity against human HepG2 cells expressing shTXNRD1 assessed as reduction in cell viability incubated for 48 hrs by MTT assay. In kind it is functional, cell-based. Conditions: HepG2, 48 h.
A short description of series [14]: Stability in human plasma assessed as parent compound remaining at 100 uM measured after 48 hrs by HPLC analysis. The class given is ADME, cell-free. The settings on record: read-out: Stability.
The test system of series [15] is HL-60. In words: Potency index, ratio of test compound IC50 to puromycin IC50 for cytotoxicity against human HL-60 cells. The class given is functional.
Series [16] in a line: Prodrug activation assessed as increase in TrxR (unknown origin) mediated NADPH oxidation by measuring absorbance at 340 nm at 150 uM. The settings on record: human.
Series [17] in a line: Stability of compound in PBS at pH 7.4 assessed as parent compound remaining at 100 uM measured after 48 hrs by HPLC analysis. In kind it is physicochemical. The settings on record: read-out: Stability.
For series [18], the target named is T1, Thioredoxin (Homo sapiens) (UniProt P10599).
T1 sequence (whole entry): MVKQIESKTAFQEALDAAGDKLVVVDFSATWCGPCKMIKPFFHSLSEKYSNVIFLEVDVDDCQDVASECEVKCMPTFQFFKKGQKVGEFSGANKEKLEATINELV
In words: Substrate activity at Trx (unknown origin) assessed as reduction in 1,2-dithiolan-4-yl ((S)-1-(((2S,3S,4R,5R)-5-(6-(dimethylamino)-9H-purin-9-yl)-4-hydroxy-2-(hydroxymethyl)tetrahydrofuran-3-yl)amino)-3-(4-methoxyphenyl)-1-oxopropan-2-yl)carbamate level by measuring absorbance at 340 nm at 150 uM in presence of NADPH.

Series [19] deals with HepG2. In words: Cytotoxicity against human HepG2 cells with high TrxR expression assessed as reduction in cell viability incubated for 48 hrs by MTT assay. The class given is functional, cell-based. Conditions: HepG2, 48 h.
Series [20] concerns MCF7. In words: Potency index, ratio of test compound IC50 to puromycin IC50 for cytotoxicity against human MCF7 cells. In kind it is functional.
The nature of series [21]: Cytotoxicity against human BEAS-2B cells with low TrxR expression assessed as reduction in cell viability incubated for 48 hrs by MTT assay. In kind it is toxicity, cell-based.
Series [22] can be described thus: Cytotoxicity against human HEK293T cells with low TrxR expression assessed as reduction in cell viability incubated for 48 hrs by MTT assay. In kind it is toxicity, cell-based, HEK-293T.
Series [23] in a line: Prodrug activation in human HeLa cell lysate assessed as reduction in 1,2-dithiolan-4-yl ((S)-1-(((2S,3S,4R,5R)-5-(6-(dimethylamino)-9H-purin-9-yl)-4-hydroxy-2-(hydroxymethyl)tetrahydrofuran-3-yl)amino)-3-(4-methoxyphenyl)-1-oxopropan-2-yl)carbamate level by measuring absorbance at 340 nm at 150 uM pretreated with TrxR inhibitor AF for 30 mins followed by compound addition in presence of NADPH. In kind it is ADME, subcellular.

Series [24] has as its system HeLa. In words: Potency index, ratio of test compound IC50 to puromycin IC50 for cytotoxicity against human HeLa cells. The class given is functional.
A short description of series [25]: Stability in mouse plasma assessed as parent compound remaining at 100 uM measured after 48 hrs by HPLC analysis. The class given is ADME, cell-free. The settings on record: read-out: Stability.
Series [26] in a line: Prodrug activation assessed as TrxR (unknown origin) mediated compound reduction by measuring absorbance at 340 nm at 150 uM in presence of NADPH. The settings on record: human.
In series [27] the target is T1, Thioredoxin (Homo sapiens). In words: Substrate activity at Trx (unknown origin) assessed as reduction in 2-((2-hydroxyethyl)disulfaneyl)ethyl ((S)-1-(((2S,3S,4R,5R)-5-(6-(dimethylamino)-9H-purin-9-yl)-4-hydroxy-2-(hydroxymethyl)tetrahydrofuran-3-yl)amino)-3-(4-methoxyphenyl)-1-oxopropan-2-yl)carbamate level by measuring absorbance at 340 nm at 150 uM in presence of NADPH.

Series [28] in a line: Prodrug activation assessed as GSH mediated compound reduction by measuring absorbance at 340 nm at 150 uM in presence of NADPH.

In the case of `C#CCOc1ccc(C[C@H](NC(=O)OC2CSSC2)C(=O)N[C@H]2[C@@H](O)[C@H](n3cnc4c(N(C)C)ncnc43)O[C@@H]2CO)cc1`, the “inhibition (INH)” value in series [1] is given as “Active”. The outcome in series [2] and in [3] was Active.

Consider `C#CCOc1ccc(C[C@H](N)C(=O)N[C@H]2[C@@H](O)[C@H](n3cnc4c(N(C)C)ncnc43)O[C@@H]2CO)cc1`, for which the outcome in series [4], in series [5] and in series [6] was Active.

On to `COc1ccc(C[C@H](NC(=O)OC2CSSC2)C(=O)N[C@H]2[C@@H](O)[C@H](n3cnc4c(N(C)C)ncnc43)O[C@@H]2CO)cc1`, for which the IC50 in the series with MCF7 [7] stood at 14.2 µM; with HepG2 [8], 4.88 µM; in the series with HL-60 [10], 55 µM; with HeLa [12], 6.08 µM; with HepG2 [13], 11.3 µM; in the series on HepG2 [19], 8.08 µM. In addition, the “Ratio IC50” value stood at 6.3 in the series on HepG2 [9]; 11.4 in the series on BEAS-2B; 15.2 in the series with HEK-293T; 14.7 in the series with HL-60 [15]; 13.4 with MCF7 [20]; 6.8 in the series with HeLa [24]. Also, the Drug metabolism result in series [11] and in series [23] was “Metabolite_Notdetected” each time. Moreover, the remaining at 48 h, 100 µM in series [14], in [17] and in series [25] was greater than 90% in each case. Moreover, in [16], the outcome was Active. Further, the outcome in [18] was Active. In addition, the IC50 at 48 h came out at 8.42 µM in series [21] and 19.5 µM in series [22].

Turning to `COc1ccc(C[C@H](NC(=O)OCCCCCCO)C(=O)N[C@H]2[C@@H](O)[C@H](n3cnc4c(N(C)C)ncnc43)O[C@@H]2CO)cc1`, the IC50 in the series on MCF7 [7], in the series on HL-60 [10], in the series with HeLa [12] and in the series on HepG2 [19] was greater than 40 µM in each case. Moreover, the remaining at 48 h, 100 µM in series [14], in [17] and in series [25] was greater than 90% each time. Moreover, in [26], the Drug metabolism result is on record as “Metabolite_Notdetected”. In addition, the concentration for half-maximal inhibition (IC50) at 48 h in series [21] and in series [22] was greater than 40 µM throughout.

For `COc1ccc(C[C@H](N)C(=O)N[C@H]2[C@@H](O)[C@H](n3cnc4c(N(C)C)ncnc43)O[C@@H]2CO)cc1` [PUROMYCIN], the IC50 came to 1.06 µM in the series with MCF7 [7], 3.73 µM with HL-60 [10], 0.9 µM in the series on HeLa [12] and 1.29 µM in the series on HepG2 [19]. In addition, the concentration for half-maximal inhibition (IC50) at 48 h in series [21] turned out to be 0.74 µM; in series [22] it was 1.28 µM.

In the case of `COc1ccc(C[C@H](NC(=O)OCCSSCCO)C(=O)N[C@H]2[C@@H](O)[C@H](n3cnc4c(N(C)C)ncnc43)O[C@@H]2CO)cc1`, the IC50 in the series with MCF7 [7] amounted to 27.5 µM; in the series with HL-60 [10], 56.7 µM; in the series on HeLa [12], 6.84 µM; in the series with HepG2 [19], 9.27 µM. The values for the remaining at 48 h, 100 µM in series [14], in series [17] and in series [25] were 29%, greater than 90% and 42%, respectively. Also, the result in series [27] was Active. Besides, the result in series [28] was Active. Also, the half-maximal inhibitory concentration (IC50) at 48 h in series [21] stood at 12.6 µM; in series [22], 24.7 µM.

For the molecule `COc1ccc(C[C@H](NC(=O)OC2CCCC2)C(=O)N[C@H]2[C@@H](O)[C@H](n3cnc4c(N(C)C)ncnc43)O[C@@H]2CO)cc1`, the 50% inhibitory concentration (IC50) with MCF7 [7], with HL-60 [10], in the series with HeLa [12] and in the series on HepG2 [19] was greater than 40 µM in each case. Moreover, the remaining at 48 h, 100 µM in series [14], in series [17] and in [25] was greater than 90% in each case. For the same molecule, in [26], the Drug metabolism result is reported as “Metabolite_Notdetected”. In addition, the IC50 at 48 h in [21] and in [22] was greater than 40 µM in each case.
